# Columns and labels:
# [1] = test system: patients with schizophrenia or schizoaffective disorders; experiment: InterSePT pharmacogenetic analysis: DAT1 3'UTR VNTR polymorphism vs Type 1 event / drug response; type: in vivo, human; settings: for Adjusted Hazard Ratio (95% CI), association between VNTR polymorphism and Type 1 event: Cox model adjusted for age, gender, substance abuse, lifetime suicide attempts; for Unadjusted Hazard Ratio (95% CI), association between VNTR polymorphism and Type 1 event: Cox proportional hazards model
# Protocol: Association between a VNTR polymorphism in the 3′UTR region of the DAT1 gene and clozapine response. The objective of this EXAMPLE was to evaluate potential association between a VNTR polymorphism in the 3′UTR region of the Dopamine Transporter 1 gene (SLC6A3; DAT1) and drug response in the patients with schizophrenia or schizoaffective disorders treated with clozapine.
# A retrospective pharmacogenetic analysis was conducted in an attempt to evaluate potential association between a variable number of tandem repeats (VNTR) polymorphism in the 3′UTR region of the DAT1 gene and drug response in the patients with schizophrenia or schizoaffective disorders treated with clozapine.
# A multicenter, randomized, two-year study comparing the risk for suicidal behaviour in patients treated with clozapine vs olanzapine had already been conducted in patients with schizophrenia or schizoaffective disorders (see above). […] See, published PCT patent application WO 2004/074513.
# Genotyping. Four hundred and two samples from the patients enrolled in the InterSePT study (see above) were collected and genotyped for the VNTR polymorphism. A total of 402 subjects enrolled in the InterSePT study consented to Pharmacogenetics study in accordance with protocols approved by local ethics committees. 15 ml of blood were collected from the patients at the trial sites. The DNA was extracted by Covance (Indianapolis, USA) using the PUREGENE™ DNA Isolation Kit (D50K) according to the manufacturer's recommendations. VNTR genotyping was performed using PCR approach as described by Kidd (Kidd Laboratory, http://info.med.yale.edu/genetics/kkidd/SLC6A3—3VNTR.html). The sense and antisense PCR primers were 5′-GGTGTAGGGAACGGCCTGAGAG-3′ (SEQ ID NO:3) and 5′-CTTCCTGGAGGTCACGGCTCAAGG-3′ (SEQ ID NO:4), respectively. Approximately 100-200 ng of genomic DNA was needed for each assay. Thirty cycles of PCR were performed with the condition of 94° C. (30″), 62° C. (30″) and 72° C. (30″). PCR products were analyzed using 2% agarose gel.
# Clinical assessments. For the primary efficacy variable, time (in days, after randomization) to meeting any one of the following two criteria: (a) a significant suicide attempt; and (b) hospitalization due to imminent suicide risk. Type 1 Event is defined as combination of above two items. For secondary efficacy variables, the following were determined: (a) percentage of subjects with significant suicide attempts; (b) percentage of subjects with hospitalization due to imminent suicide risk; (c) change from baseline in the total score of the Positive and Negative Syndrome Scale (PANSS); (d) change from baseline in the Positive subtotal of PANSS; and (e) change from baseline in the Negative subtotal of PANSS.
# Statistic analysis. The SAS Version 8.2 for Windows package was used for statistical analysis. The continuous and dischotomous variables in demographic differences between the genotype groups were compared using non-parametric ANOVA and Fisher's exact test, respectively. The differential effects of genotypes on the time to Type 1 event were evaluated using log rank test. Age, gender, substance abuse, and lifetime suicide attempts were adjusted in further analysis using the Cox proportional hazards model.
# [2] = test system: patients with schizophrenia or schizoaffective disorders; experiment: as above; type: in vivo, human
# [3] = All with schizoaffective disorder, genotype L/L (10≦/10≦)
# [4] = All with schizoaffective disorder, genotype S/L (10≦/9≧)
# [5] = All with schizoaffective disorder, genotype S/S (9≧/9≧)
# [6] = All with schizophrenia, genotype L/L (10≦/10≦)
# [7] = All with schizophrenia, genotype S/L (10≦/9≧)
# [8] = All with schizophrenia, genotype S/S (9≧/9≧)
# [9] = Caucasian, VNTR genotype 9≧/9≧, end of study
# [10] = Caucasian, VNTR genotype 10≦/9≧, end of study
# [11] = Caucasian, VNTR genotype 10≦/10≦, end of study
# [12] = Caucasians with schizoaffective disorder, genotype L/L (10≦/10≦)
# [13] = Caucasians with schizoaffective disorder, genotype S/L (10≦/9≧)
# [14] = Caucasians with schizoaffective disorder, genotype S/S (9≧/9≧)
# [15] = Caucasians with schizophrenia, genotype L/L (10≦/10≦)
# [16] = Caucasians with schizophrenia, genotype S/L (10≦/9≧)
# [17] = Caucasians with schizophrenia, genotype S/S (9≧/9≧)
# [18] = Whole race group, VNTR genotype 9≧/9≧, end of study
# [19] = Whole race group, VNTR genotype 10≦/9≧, end of study
# [20] = Whole race group, VNTR genotype 10≦/10≦, end of study
smiles,measurement,setting,value
"CN1CCN(C2=Nc3cc(Cl)ccc3Nc3ccccc32)CC1 [Clozapine, 8-chloro-11-(4-methyl-1-piperazinyl)-5H-dibenzo[be][1,4]diazepine]",End point Type 1 event: No,[1]; [3],30 (75%) numbers of subjects (%)
same,End point Type 1 event: Yes,[1]; [3],10 (25%) numbers of subjects (%)
same,End point Type 1 event: No,[1]; [4],25 (83%) numbers of subjects (%)
same,End point Type 1 event: Yes,[1]; [4],5 (17%) numbers of subjects (%)
same,End point Type 1 event: No,[1]; [5],7 (70%) numbers of subjects (%)
same,End point Type 1 event: Yes,[1]; [5],3 (30%) numbers of subjects (%)
same,End point Type 1 event: No,[1]; [6],53 (87%) numbers of subjects (%)
same,End point Type 1 event: Yes,[1]; [6],8 (13%) numbers of subjects (%)
same,End point Type 1 event: No,[1]; [7],35 (87%) numbers of subjects (%)
same,End point Type 1 event: Yes,[1]; [7],5 (13%) numbers of subjects (%)
same,End point Type 1 event: No,[1]; [8],4 (50%) numbers of subjects (%)
same,End point Type 1 event: Yes,[1]; [8],4 (50%) numbers of subjects (%)
same,End point Type 1 event: No,[1]; [9],9 (56%) numbers of subjects (%)
same,End point Type 1 event: Yes,[1]; [9],7 (44%) numbers of subjects (%)
same,End point Type 1 event: No,[1]; [10],45 (85%) numbers of subjects (%)
same,End point Type 1 event: Yes,[1]; [10],8 (15%) numbers of subjects (%)
same,End point Type 1 event: No,[1]; [11],67 (83%) numbers of subjects (%)
same,End point Type 1 event: Yes,[1]; [11],14 (17%) numbers of subjects (%)
same,End point Type 1 event: No,[1]; [12],28 (76%) numbers of subjects (%)
same,End point Type 1 event: Yes,[1]; [12],9 (24%) numbers of subjects (%)
same,End point Type 1 event: No,[1]; [13],22 (85%) numbers of subjects (%)
same,End point Type 1 event: Yes,[1]; [13],4 (15%) numbers of subjects (%)
same,End point Type 1 event: No,[1]; [14],7 (70%) numbers of subjects (%)
same,End point Type 1 event: Yes,[1]; [14],3 (30%) numbers of subjects (%)
same,End point Type 1 event: No,[1]; [15],39 (89%) numbers of subjects (%)
same,End point Type 1 event: Yes,[1]; [15],5 (11%) numbers of subjects (%)
same,End point Type 1 event: No,[1]; [16],23 (85%) numbers of subjects (%)
same,End point Type 1 event: Yes,[1]; [16],4 (15%) numbers of subjects (%)
same,End point Type 1 event: No,[1]; [17],2 (33%) numbers of subjects (%)
same,End point Type 1 event: Yes,[1]; [17],4 (67%) numbers of subjects (%)
same,"Adjusted Hazard Ratio (95% CI), association between VNTR polymorphism and Type 1 event",[1]; Caucasians,0.296 (0.120-0.733)
same,"Unadjusted Hazard Ratio (95% CI), association between VNTR polymorphism and Type 1 event",[1]; Caucasians,0.307 (0.130-0.723)
same,End point Type 1 event: No,[1]; [18],11 (61%) numbers of subjects (%)
same,End point Type 1 event: Yes,[1]; [18],7 (39%) numbers of subjects (%)
same,End point Type 1 event: No,[1]; [19],60 (86%) numbers of subjects (%)
same,End point Type 1 event: Yes,[1]; [19],10 (14%) numbers of subjects (%)
same,End point Type 1 event: No,[1]; [20],83 (82%) numbers of subjects (%)
same,End point Type 1 event: Yes,[1]; [20],18 (18%) numbers of subjects (%)
same,patients calculated to be poor responders,[1]; according to the SLC6A3 genotypes,about 10%
same,"Adjusted Hazard Ratio (95% CI), association between VNTR polymorphism and Type 1 event",[1]; whole population,0.396 (0.167-0.936)
same,"Unadjusted Hazard Ratio (95% CI), association between VNTR polymorphism and Type 1 event",[1]; whole population,0.342 (0.148-0.788)
same,patients who experienced Type 1 events at the end of study,[2]; subpopulation with the two risk factors (VNTR in 3'-UTR and exon 9 polymorphism of SLC6A3),About 40%
same,patients who had Type 1 events at the end of study,[2]; subpopulation without the two risk factors (VNTR in 3'-UTR and exon 9 polymorphism of SLC6A3),15%
"Cc1cc2c(s1)Nc1ccccc1N=C2N1CCN(C)CC1 [Olanzapine, olanzapine]",End point Type 1 event: No,[1]; [3],22 (60%) numbers of subjects (%)
same,End point Type 1 event: Yes,[1]; [3],15 (40%) numbers of subjects (%)
same,End point Type 1 event: No,[1]; [4],22 (67%) numbers of subjects (%)
same,End point Type 1 event: Yes,[1]; [4],11 (33%) numbers of subjects (%)
same,End point Type 1 event: No,[1]; [5],4 (57%) numbers of subjects (%)
same,End point Type 1 event: Yes,[1]; [5],3 (43%) numbers of subjects (%)
same,End point Type 1 event: No,[1]; [6],50 (82%) numbers of subjects (%)
same,End point Type 1 event: Yes,[1]; [6],11 (18%) numbers of subjects (%)
same,End point Type 1 event: No,[1]; [7],32 (76%) numbers of subjects (%)
same,End point Type 1 event: Yes,[1]; [7],10 (24%) numbers of subjects (%)
same,End point Type 1 event: No,[1]; [8],8 (80%) numbers of subjects (%)
same,End point Type 1 event: Yes,[1]; [8],2 (20%) numbers of subjects (%)
same,End point Type 1 event: No,[1]; [9],6 (60%) numbers of subjects (%)
same,End point Type 1 event: Yes,[1]; [9],4 (40%) numbers of subjects (%)
same,End point Type 1 event: No,[1]; [10],45 (76%) numbers of subjects (%)
same,End point Type 1 event: Yes,[1]; [10],14 (24%) numbers of subjects (%)
same,End point Type 1 event: No,[1]; [11],59 (76%) numbers of subjects (%)
same,End point Type 1 event: Yes,[1]; [11],19 (24%) numbers of subjects (%)
same,End point Type 1 event: No,[1]; [12],22 (67%) numbers of subjects (%)
same,End point Type 1 event: Yes,[1]; [12],11 (33%) numbers of subjects (%)
same,End point Type 1 event: No,[1]; [13],21 (75%) numbers of subjects (%)
same,End point Type 1 event: Yes,[1]; [13],7 (25%) numbers of subjects (%)
same,End point Type 1 event: No,[1]; [14],3 (50%) numbers of subjects (%)
same,End point Type 1 event: Yes,[1]; [14],3 (50%) numbers of subjects (%)
same,End point Type 1 event: No,[1]; [15],37 (82%) numbers of subjects (%)
same,End point Type 1 event: Yes,[1]; [15],8 (18%) numbers of subjects (%)
same,End point Type 1 event: No,[1]; [16],24 (77%) numbers of subjects (%)
same,End point Type 1 event: Yes,[1]; [16],7 (23%) numbers of subjects (%)
same,End point Type 1 event: No,[1]; [17],3 (75%) numbers of subjects (%)
same,End point Type 1 event: Yes,[1]; [17],1 (25%) numbers of subjects (%)
same,"Adjusted Hazard Ratio (95% CI), association between VNTR polymorphism and Type 1 event",[1]; Caucasians,0.542 (0.185-1.590)
same,"Unadjusted Hazard Ratio (95% CI), association between VNTR polymorphism and Type 1 event",[1]; Caucasians,0.548 (0.194-1.547)
same,End point Type 1 event: No,[1]; [18],12 (71%) numbers of subjects (%)
same,End point Type 1 event: Yes,[1]; [18],5 (29%) numbers of subjects (%)
same,End point Type 1 event: No,[1]; [19],54 (72%) numbers of subjects (%)
same,End point Type 1 event: Yes,[1]; [19],21 (28%) numbers of subjects (%)
same,End point Type 1 event: No,[1]; [20],72 (73%) numbers of subjects (%)
same,End point Type 1 event: Yes,[1]; [20],26 (27%) numbers of subjects (%)
same,"Adjusted Hazard Ratio (95% CI), association between VNTR polymorphism and Type 1 event",[1]; whole population,0.824 (0.317-2.138)
same,"Unadjusted Hazard Ratio (95% CI), association between VNTR polymorphism and Type 1 event",[1]; whole population,0.886 (0.353-2.225)
